Measured values published in ChEMBL document CHEMBL1687789, “Characteristics and dissemination of mosaic penicillin-binding protein 2-harboring multidrug-resistant Neisseria gonorrhoeae isolates with reduced cephalosporin susceptibility in northern Taiwan” (2010).
Converted amounts (≈) assume the structure as drawn.

How the values were obtained:
Format in all cases: functional
[1] = system: Neisseria gonorrhoeae; assay: Antimicrobial activity against multidrug-resistant Neisseria gonorrhoeae isolates by Etest
[2] = system: Neisseria gonorrhoeae; assay: Antimicrobial activity against multidrug-resistant Neisseria gonorrhoeae isolates harboring mosaic penicillin-binding protein 2 penA by Etest
[3] = system: Neisseria gonorrhoeae; assay: Antimicrobial activity against Neisseria gonorrhoeae isolates harboring non-mosaic penicillin-binding protein 2 penA by Etest
[4] = system: Neisseria gonorrhoeae; assay: Antimicrobial activity against multidrug-resistant Neisseria gonorrhoeae isolates assessed as resistant isolates by disk susceptibility test
[5] = system: Neisseria gonorrhoeae; assay: Antimicrobial activity against Neisseria gonorrhoeae isolates harboring non-mosaic penicillin-binding protein 2 penA assessed as resistant isolates by disk susceptibility test
[6] = system: Neisseria gonorrhoeae; assay: Antimicrobial activity against multidrug-resistant Neisseria gonorrhoeae isolates harboring mosaic penicillin-binding protein 2 penA assessed as resistant isolates by disk susceptibility test

SMILES	MIC [1] [µg/mL]	MIC [2] [µg/mL]	MIC [3] [µg/mL]	Activity [4] [%]	Activity [5] [%]	Activity [6] [%]
C=CC1=C(C(=O)O)N2C(=O)[C@@H](NC(=O)/C(=N\OCC(=O)O)c3csc(N)n3)[C@H]2SC1 [CEFIXIME]	0.016 (≈ 0.0353 µM)	0.125 (≈ 0.276 µM)	0.016 (≈ 0.0353 µM)	–	–	–
CO/N=C(\C(=O)N[C@@H]1C(=O)N2C(C(=O)O)=C(CSc3nc(=O)c(O)nn3C)CS[C@H]12)c1csc(N)n1 [CEFTRIAXONE]	0.002 (≈ 0.00361 µM)	0.023 (≈ 0.0415 µM)	0.002 (≈ 0.00361 µM)	–	–	–
O=C(O)c1cn(C2CC2)c2cc(N3CCNCC3)c(F)cc2c1=O [CIPROFLOXACIN]	–	–	–	88.6	84.3	100
CC1(C)S[C@@H]2[C@H](NC(=O)Cc3ccccc3)C(=O)N2[C@H]1C(=O)O [PENICILLIN G]	–	–	–	62.2	58.9	71
